# Reference: paper PMC5798451 (European journal of medicinal chemistry, 2017)
# Like-named read-outs stand apart in the source and are kept apart here.
# What was measured:
# [1] = test system: RS4; 11; conditions: cited from earlier work
# [2] = test system: HeLa; conditions: cited from earlier work
# [3] = test system: A549; conditions: cited from earlier work
# [4] = test system: HeLa cells; experiment: Apoptosis assay annexin-V-FITC/PI, HeLa; format: cell-based, human; conditions: for induction of apoptosis: 24 or 48 h, annexin-V-FITC/PI
# [5] = test system: Jurkat; conditions: cited from earlier work
# [6] = test system: HT-29; conditions: cited from earlier work
# [7] = test system: A549; experiment: Apoptosis assay annexin-V-FITC/PI, A549; format: cell-based, human; conditions: A549, 24 or 48 h
# [8] = test system: HeLa cells; experiment: Flow cytometric analysis of cell cycle distribution; format: cell-based, human; conditions: 24 h treatment, PI flow cytometry
# [9] = test system: HeLa cells; experiment: ROS production; format: cell-based, human; conditions: 1 µM, starting at 12–24 h, H2-DCFDA
# [10] = test system: HeLa cells; experiment: Western blot analysis of cell cycle and apoptosis proteins; format: cell-based, human
# [11] = test system: HeLa cells; experiment: Mitochondrial membrane potential; format: cell-based, human; conditions: 0.1–1.0 µM, 6-48 h, JC-1
# [12] = test system: panel of 7 human tumor cell lines (HeLa, A549, HT-29, MDA-MB-231, RS4; 11, Jurkat, and Kasumi-1); experiment: MTT antiproliferative assay, panel of 7 human tumor cell lines; format: cell-based; conditions: read-out: GI50s
# [13] = target: tubulin (Bos taurus, UniProt P81947+Q6B856); conditions: tubulin 1 µM, [3H]colchicine 5 µM; ref [4]; cited from earlier work
# [14] = target: bovine brain tubulin (Bos taurus, UniProt P81947+Q6B856); conditions: read-out: Inhibition of tubulin assembly IC50 ± SD; tubulin at 10 µM; ref [4]; cited from earlier work
# Sequence of bovine brain tubulin (Q6B856 whole entry): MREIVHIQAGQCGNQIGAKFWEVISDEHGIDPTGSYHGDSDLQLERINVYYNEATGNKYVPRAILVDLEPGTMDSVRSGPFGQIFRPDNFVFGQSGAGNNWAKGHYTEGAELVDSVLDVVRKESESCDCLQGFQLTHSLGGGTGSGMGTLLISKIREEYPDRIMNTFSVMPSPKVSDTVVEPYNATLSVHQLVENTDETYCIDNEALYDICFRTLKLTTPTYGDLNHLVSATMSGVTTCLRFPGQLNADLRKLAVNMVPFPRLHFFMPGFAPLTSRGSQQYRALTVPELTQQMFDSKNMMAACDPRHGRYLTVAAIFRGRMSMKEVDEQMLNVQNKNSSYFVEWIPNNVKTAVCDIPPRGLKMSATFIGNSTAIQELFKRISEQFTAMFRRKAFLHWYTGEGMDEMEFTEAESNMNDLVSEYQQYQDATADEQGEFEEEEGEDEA
# Sequence of bovine brain tubulin (P81947 whole entry): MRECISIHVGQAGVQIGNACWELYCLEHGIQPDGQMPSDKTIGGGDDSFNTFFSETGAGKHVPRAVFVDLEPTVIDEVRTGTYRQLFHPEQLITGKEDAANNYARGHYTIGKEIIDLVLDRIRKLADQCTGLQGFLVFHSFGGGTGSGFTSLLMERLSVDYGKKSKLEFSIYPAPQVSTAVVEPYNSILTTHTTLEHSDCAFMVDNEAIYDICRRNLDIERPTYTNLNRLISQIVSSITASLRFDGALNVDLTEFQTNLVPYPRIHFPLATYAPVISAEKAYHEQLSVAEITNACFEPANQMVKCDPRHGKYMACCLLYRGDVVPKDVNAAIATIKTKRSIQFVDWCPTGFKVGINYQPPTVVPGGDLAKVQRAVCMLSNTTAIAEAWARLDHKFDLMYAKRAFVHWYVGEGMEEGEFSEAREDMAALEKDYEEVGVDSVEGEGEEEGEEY
# Sequence of tubulin (Q6B856 whole entry): as the sequence (Q6B856 whole entry) above
# Sequence of tubulin (P81947 whole entry): as the sequence (P81947 whole entry) above
smiles,measurement,setting,value
"COc1ccc(/C=C\c2cc(OC)c(OC)c(OC)c2)cc1O [CA-4, combretastatin A-4]",GI50,[1]; ref [8] and [20],0.8 ± 0.2 nM
same,GI50,[2]; ref [8] and [20],4 ± 1 nM
same,GI50,[3]; ref [8] and [20],180 ± 50 nM
same,apoptotic response,[4]; 0.1 µM,strong apoptotic response
same,GI50,[5]; ref [8] and [20],5 ± 0.6 nM
same,GI50,[6]; ref [8] and [20],3100 ± 100 nM
"CCn1ccc2c3c(=O)cc(-c4cccc5ccccc45)[nH]c3ccc21 [Compound 21, 3-ethyl-7-(naphthalen-1-yl)-3H-pyrrolo[3,2-f]quinolin-9(6H)-one]",induction of apoptosis,[7],induced apoptosis in a time and concentration dependent manner
same,induction of apoptosis,[4],induced apoptosis in a time and concentration dependent manner
same,effect on cell cycle progression,[8],induced a G2/M arrest
"CCn1ccc2c3c(=O)cc(-c4ccc5c(c4)CCCC5)[nH]c3ccc21 [Compound 23, 3-ethyl-7-(1,2,3,4-tetrahydronaphthalen-6-yl)-3H-pyrrolo[3,2-f]quinolin-9(6H)-one]",induction of apoptosis,[7],induced apoptosis in a time and concentration dependent manner
same,induction of apoptosis,[4],induced apoptosis in a time and concentration dependent manner
same,effect on cell cycle progression,[8],induced a G2/M arrest
"CCn1ccc2c3c(=O)cc(-c4ccc5c(c4)OCO5)[nH]c3ccc21 [Compound 24, 7-(benzo[d][1,3]dioxol-5-yl)-3-ethyl-3H-pyrrolo[3,2-f]quinolin-9(6H)-one]",ROS production,[9],induced significant production of ROS
same,expression of anti-apoptotic proteins Bcl-2 and Mcl-1,"[10]; immunoblot, 50 nM",reduced the expression
same,PARP cleavage,[10]; western blot,concentration and time-dependent cleavage of poly (ADP-Ribose) polymerase (PARP)
same,cyclin B1 expression,"[10]; western blot, 24 and 48 h",increase in cyclin B1 expression
same,phosphatase cdc25c expression,"[10]; western blot, 24 h",reduction in the expression of phosphatase cdc25c
same,phosphorylated cdc2 kinase,"[10]; western blot, in particular after 48 h",decrease of the phosphorylated form of cdc2 kinase
same,induction of apoptosis,[7],induced apoptosis in a time and concentration dependent manner
same,mitochondrial transmembrane potential (Δψmt),[11],time-dependent increase in the percentage of cells with low Δψmt
same,induction of apoptosis,[4],induced apoptosis in a time and concentration dependent manner
same,effect on cell cycle progression,[8],induced a G2/M arrest
"O=C1C=C(c2ccccc2)Nc2cccc3ccn1c23 [Compound 30, (Z)-2-phenyl-[1,4]diazepino[3,2,1-hi]indol-4(1H)-one]",IC50,[12],> 10000 nM
"CCn1ccc2c3c(=O)cc(-c4ccccc4)[nH]c3ccc21 [Compound 31, 3-ethyl-7-phenyl-3H-pyrrolo[3-2-f] quinolin-9-one]",Inhibition of colchicine binding % Inhibition ± SD,[13],73 ± 0.7%
same,GI50,[1]; ref [4] and [8],2 ± 0.3 nM
same,GI50,[2]; ref [4] and [8],11 ± 8 nM
same,GI50,[3]; ref [4] and [8],32 ± 1.5 nM
same,IC50,[14],570 ± 20 nM
same,GI50,[5]; ref [4] and [8],0.5 ± 0.2 nM
same,GI50,[6]; ref [4] and [8],32 ± 1.2 nM
